Assay results as given in patent US20240400620A1, “Compositions Containing Coronavirus Proteins and Epitopes” (priority 2021, published 2024).

Test system: activated CD4+ T cells from MA10-infected HLA-DRB1*0101 Ifnar1^−/− mice
Format: cell-based

Row | Sequence | expansion of multifunctional IFNγ+/TNF+ CD4+ T cells | frequency of IFNγ-producing activated CD4+ T cells compared with unstimulated control cells
1 | GTWLTYTGAIKLDDK (misc_feature - Nucleoprotein; Severe acute respiratory syndrome-related coronavirus) [N328-342] | capable of expanding | –
2 | LNTLVKQLSSNFGAI [S959-973] | – | increase was significant
3 | RWYFYYLGTGPEAGL (misc_feature - Nucleoprotein; Severe acute respiratory syndrome-related coronavirus) [N107-121] | – | increase was significant
4 | TSNFRVQPTESIVRF [S315-329] | capable of expanding | –
5 | VLSFELLHAPATVCG [S512-526] | capable of expanding | –
